{"source": "patent US20210379021A1", "about": "(Race Oncology Ltd., priority 2018, published 2021)", "key": {"Human tumor cells": {"test_system": "Human tumor cells", "conditions": "cited from earlier work"}, "L-1210 leukemia cells": {"test_system": "L-1210 leukemia cells", "conditions": "cited from earlier work"}, "[1]": {"conditions": "high doses; cited from earlier work"}, "DNA": {"test_system": "DNA", "conditions": "hypoxic conditions; cited from earlier work"}, "[2]": {"conditions": "in vivo; cited from earlier work"}, "[3]": {"conditions": "cited from earlier work"}, "[4]": {"test_system": "hepatic microsomal enzymes", "conditions": "in vitro; specific metabolites not identified; cited from earlier work"}, "[5]": {"test_system": "P-388 leukemia and B-16 melanoma", "conditions": "mouse, in vivo; cited from earlier work"}, "Human Platelets": {"test_system": "Human Platelets", "conditions": "cited from earlier work"}, "plasma proteins": {"test_system": "plasma proteins", "conditions": "cited from earlier work"}, "tumor cells": {"test_system": "tumor cells", "conditions": "cited from earlier work"}, "[6]": {"conditions": "cited from earlier work", "remark": "listed apart in the source"}, "calf thymus DNA": {"test_system": "calf thymus DNA", "conditions": "in vitro; cited from earlier work"}, "[7]": {"assay": "Filtration of 40 mg/mL stock mixture, content by HPLC", "format": "physicochemical", "conditions": "5-μm, 1.2-μm and 0.2-μm filters", "description": "Finished vials are sealed under nitrogen and partial vacuum for storage. Storage of the vials is typically at 18° C. to 25° C."}, "[8]": {"test_system": "colon 26, Lewis lung, Ridgway osteosarcoma, B16, Lieberman plasma cell, P388 or L1210 cancer cells", "conditions": "cited from earlier work"}, "[9]": {"assay": "Assay of reconstituted bisantrene dihydrochloride diluted in i.v. bag, with or without 0.2-μm filter, glass vs plastic sample vials", "format": "physicochemical"}, "[10]": {"conditions": "cited from earlier work", "remark": "listed apart in the source"}, "[11]": {"conditions": "cited from earlier work", "remark": "listed apart in the source"}, "[12]": {"conditions": "in vivo; cited from earlier work", "remark": "listed apart in the source"}, "[13]": {"conditions": "in vivo; cited from earlier work", "remark": "listed apart in the source"}, "[14]": {"conditions": "cited from earlier work", "remark": "listed apart in the source"}}, "note": "Counter-ions that a name gives are not always drawn. Like-named read-outs stand apart in the source and are kept apart here."}
{"smiles": "C(=N\\NC1=NCCN1)/c1c2ccccc2c(/C=N/NC2=NCCN2)c2ccccc12", "note": "[bisantrene, 9,10-anthracenedicarboxaldehyde-bis [(4,5-dihydro-1H-imidazole-2-yl) hydrazine] dihydrochloride]", "values": [{"measurement": "sensitivity of human tumor cells", "setting": "Human tumor cells; breast, ovarian, renal, small cell and non-small cell lung cancer, lymphoma, acute myelogenous leukemia, melanoma, gastric, adrenal, head and neck cancer", "result": "sensitive"}, {"measurement": "activity in human colon cancer", "setting": "Human tumor cells; tested in vitro", "result": "inactive"}, {"measurement": "DNA strand breaks typical of inhibition of DNA topoisomerase II enzymes", "setting": "L-1210 leukemia cells", "result": "induce protein-associated DNA strand breaks"}, {"measurement": "DNA supercoiling indicative of DNA intercalation", "setting": "L-1210 leukemia cells", "result": "induce altered DNA supercoiling"}, {"measurement": "toxicities observed", "setting": "[1]", "result": "leukopenia, anorexia, diarrhea, injection site necrosis, enterocolitis, muscle degeneration, and pulmonary edema"}, {"measurement": "cytotoxicity and DNA strand breaks", "setting": "DNA", "result": "reduced"}, {"measurement": "cardiotoxicity", "setting": "[2]", "result": "not cardiotoxic"}, {"measurement": "activity in refractory malignant melanoma", "setting": "[3]; Phase II", "result": "inactive"}, {"measurement": "activity in phase I clinical trials", "setting": "[3]; hepatocellular cancer and hypernephroma (one patient each)", "result": "showed activity"}, {"measurement": "activity in phase I clinical trials", "setting": "[3]; lymphoma, myeloma, melanoma, renal cancer, tumors of the bladder and lung", "result": "showed activity"}, {"measurement": "activity in Phase II clinical trials", "setting": "[3]; patients with metastatic breast cancer", "result": "active"}, {"measurement": "activity in human colon cancer", "setting": "[3]; tested in vivo (Phase II, advanced colorectal cancer)", "result": "inactive"}, {"measurement": "activity in phase I clinical trials", "setting": "[3]; two other hypernephroma patients, five-day schedule", "result": "activity was also observed"}, {"measurement": "metabolism by hepatic microsomal enzymes", "setting": "[4]", "result": "substrate"}, {"measurement": "antitumor activity", "setting": "[5]", "result": "antitumor activity"}, {"measurement": "effect on platelet aggregation", "setting": "Human Platelets", "result": "inhibit platelet aggregation"}, {"measurement": "bound to plasma proteins", "setting": "plasma proteins", "result": "More than 95%"}, {"measurement": "activity in clonogenic assays", "setting": "tumor cells; breast, small cell lung, large cell lung, squamous cell lung, ovarian, pancreatic, renal, adrenal, head and neck, sarcoma, gastric, lymphoma and melanoma tumor cells", "result": "Activity"}, {"measurement": "cross resistance with Adriamycin and mitoxantrone", "setting": "tumor cells", "result": "lack of cross resistance"}, {"measurement": "activity in clonogenic assays", "setting": "tumor cells; colorectal cancer", "result": "not in colorectal cancer"}, {"measurement": "dose excreted in the urine", "setting": "[6]; in vivo", "result": "Less than 7%"}, {"measurement": "route by which the majority of the drug is eliminated", "setting": "[6]; in vivo", "result": "hepatobiliary route"}, {"measurement": "area under the plasma concentration×time curve", "setting": "[6]; intravenous dose 260 mg/m^2", "result": 4400, "unit": "µg·h/mL"}, {"measurement": "area under the plasma concentration×time curve", "setting": "[6]; intravenous dose 340 mg/m^2", "result": 5700, "unit": "µg·h/mL"}, {"measurement": "beta phase of elimination", "setting": "[6]; plasma", "result": "approximately 1.5 hours"}, {"measurement": "initial distributive phase of elimination", "setting": "[6]; plasma", "result": 6, "unit": "min"}, {"measurement": "shape of DNA dissociation curves", "setting": "calf thymus DNA", "result": "biphasic"}, {"measurement": "effect of removal of particulates on content in solution", "setting": "[7]", "result": "does not diminish"}, {"measurement": "activity in cancer models", "setting": "[8]; intravenously (i.v.), intraperitoneally (i.p.), or subcutaneously (s.c.)", "result": "effective"}, {"measurement": "activity in cancer models", "setting": "[8]; orally", "result": "inactive"}, {"measurement": "assay after passage through 0.2-μm filter versus i.v. bag assay", "setting": "[9]; sample collected in glass vials", "result": "approximately 5 % lower"}, {"measurement": "assay after passage through 0.2-μm filter versus i.v. bag assay", "setting": "[9]; sample collected in plastic vials", "result": "approximately matched"}, {"measurement": "assay of fully diluted drug in the i.v. bag versus reconstituted drug in the finished vial", "setting": "[9]; samples collected in glass vials", "result": "approximately 5 % lower"}, {"measurement": "assay of fully diluted drug in the i.v. bag versus reconstituted drug in the finished vial", "setting": "[9]; samples collected in plastic vials", "result": "no reduction"}, {"measurement": "maximally tolerated dose", "setting": "[10]; daily×5, repeat every 4 week (Spiegel et al. 1982)", "result": 80, "unit": "mg/m^2"}, {"measurement": "maximally tolerated dose", "setting": "[10]; monthly (every 3-4 week) (Von Hoff et al. 1981b)", "result": 260, "unit": "mg/m^2"}, {"measurement": "maximally tolerated dose", "setting": "[10]; monthly (every 3-4 week), patients with poor bone marrow reserve", "result": 240, "unit": "mg/mg^2"}, {"measurement": "maximally tolerated dose", "setting": "[10]; weekly×3 (Alberts et al. 1982)", "result": 200, "unit": "mg/m^2"}, {"measurement": "maximally tolerated dose", "setting": "[10]; weekly×3, patients with poor bone marrow reserve (Alberts et al. 1982)", "result": 150, "unit": "mg/mg^2"}, {"measurement": "maximally tolerated dose", "setting": "[10]; weekly×3, repeat every 4-5 week (Yap et al. 1982)", "result": 150, "unit": "mg/m^2"}, {"measurement": "toxicity for which the Phase II study was terminated", "setting": "[11]; heavily pretreated patients with metastatic breast cancer", "result": "significant local toxicity"}, {"measurement": "alopecia (hair loss) compared with doxorubicin", "setting": "[11]; human, in vivo", "result": "less intense"}, {"measurement": "anemia and cumulative myelosuppressive toxic effects", "setting": "[11]; human, in vivo", "result": "not encountered"}, {"measurement": "cardiotoxicity in the clinic compared with other agents in its class", "setting": "[11]; human, in vivo", "result": "less cardiotoxicity"}, {"measurement": "electrocardiographic changes while receiving the drug", "setting": "[11]; human, in vivo", "result": "No patients experienced electrocardiographic changes"}, {"measurement": "fever", "setting": "[11]; human, in vivo", "result": "mild fever"}, {"measurement": "major dose-limiting toxic effect", "setting": "[11]; human, in vivo", "result": "leukopenia"}, {"measurement": "nausea or vomiting", "setting": "[11]; human, in vivo", "result": "very little nausea or vomiting"}, {"measurement": "patients reporting malaise", "setting": "[11]; human, in vivo", "result": "up to one-half of patients"}, {"measurement": "patients with anaphylactoid reactions following infusion", "setting": "[11]; human, in vivo", "result": "Up to 10%"}, {"measurement": "phlebitis along peripheral veins used for drug infusion", "setting": "[11]; human, in vivo", "result": "severe phlebitis"}, {"measurement": "radioangiocardiographic monitoring of cardiac function", "setting": "[11]; human, in vivo", "result": "no decrease in ejection fraction"}, {"measurement": "recovery from myelosuppression", "setting": "[11]; human, in vivo", "result": "≤ 19", "unit": "days"}, {"measurement": "thrombocytopenia", "setting": "[11]; human, in vivo", "result": "mild"}, {"measurement": "nadir for myelosuppression", "setting": "[11]; schedule of every 3 to 4 weeks", "result": 9, "unit": "days"}, {"measurement": "precipitation of drug in the body", "setting": "[12]", "result": "precipitates in the body have been observed"}, {"measurement": "brain levels", "setting": "[13]", "result": "extremely low"}, {"measurement": "distribution to lymph nodes and bone marrow", "setting": "[13]", "result": "did distribute"}, {"measurement": "tissues with the highest concentration (in descending order)", "setting": "[13]", "result": "kidney, liver, gallbladder, spleen, lung, and heart"}]}
{"smiles": "O=C([O-])O.[Na+]", "note": "[sodium bicarbonate]", "values": [{"measurement": "effect of local injection on bisantrene extravasation necrosis", "setting": "[14]", "result": "blocked"}]}
